According to patent US6884421B2, “Pharmaceutical composition for diabetic nephropathy” (Council of Scientific and Industrial Research, priority 2002, dated 2005):
Marks after values point to notes of the source that are not given here.

How the values were obtained:
[1] = system: diabetic rats; assay: Urinary protein excretion by TCA precipitation method in streptozotocin diabetic rats; type: in vivo, Male Wistar rats; conditions: end of fifth week
Protocol: Urinary protein is determined at the end of fifth week by TCA precipitation method and the absorbance is measured at 660 nm.
Diabetes is induced in Male Wistar rats weighing between 120 g using streptozotocin at 55 mg/kg body weight and the rats are fed with wheat bran (1 to 5%), guar gum (1 to 2.5%) and butyric acid in the range of 1, 2, 4, 6, 8 and 10 mg/kg body weight/day in drinking water. After 4 days measuring fasting blood glucose level in the plasma and urinary sugar levels assessed the diabetic status.
Diabetes is induced in Male Wistar rats weighing between 120 g using streptozotocin at 55 mg/kg body weight and the rats are fed with wheat bran (1 to 5%), guar gum (1 to 2.5%) and butyric acid in the range of 250, 500 and 750 mg/kg body weight/day in drinking water. After 4 days measuring fasting blood glucose level in the plasma and urinary sugar levels assessed the diabetic status.
Urinary protein is determined at the end of fifth week by TCA precipitation method and the absorbance is measured at 660 nm (Table 2).

[2] = system: diabetic rats; assay: Glomerular Filtration Rate from urinary and plasma creatinine in streptozotocin diabetic rats; type: in vivo, Male Wistar rats; conditions: end of fifth week, mean ±SEM
Excerpt: Urinary creatinine is estimated by alkaline picrate reagent method. […] The plasma is deproteinsed using tungstic acid prior to creatinine estimation.
The formula used is [formula]

[3] = FFD-250: fibre fed (wheat bran, guar gum) diabetic rats, 250 mg butyric acid/kg body weight/day in drinking water
[4] = FFD-500: fibre fed (wheat bran, guar gum) diabetic rats, 500 mg butyric acid/kg body weight/day in drinking water
[5] = FFD-750: fibre fed (wheat bran, guar gum) diabetic rats, 750 mg butyric acid/kg body weight/day in drinking water
[6] = SFD-250: starch fed diabetic rats, 250 mg butyric acid/kg body weight/day in drinking water
[7] = SFD-500: starch fed diabetic rats, 500 mg butyric acid/kg body weight/day in drinking water
[8] = SFD-750: starch fed diabetic rats, 750 mg butyric acid/kg body weight/day in drinking water

## CCCC(=O)O [butyric acid]
[1]; [3]
  Urinary protein: 104.07 ± 11.31^b mg/24 h
[1]; [4]
  Urinary protein: 88.82 ± 9.82^b mg/24 h
[1]; [5]
  Urinary protein: 90.37 ± 9.14^b mg/24 h
[1]; [6]
  Urinary protein: 126.77 ± 9.82 mg/24 h
[1]; [7]
  Urinary protein: 124.86 ± 6.81^b mg/24 h
[1]; [8]
  Urinary protein: 115.37 ± 10.91 mg/24 h
[2]; [3]
  GFR: 10.56 ± 1.05^b mL/min
[2]; [4]
  GFR: 9.23 ± 1.09^b mL/min
[2]; [5]
  GFR: 11.64 ± 1.27^b mL/min
[2]; [6]
  GFR: 15.99 ± 1.30 mL/min
[2]; [7]
  GFR: 15.60 ± 1.21 mL/min
[2]; [8]
  GFR: 15.23 ± 1.04 mL/min
